We go through six compounds from US9422248B2 (University of Iowa Research Foundation, priority 2012, dated 2016).

“Also recorded” adds a separate entry of the source. Like-named read-outs stand apart in the source and are kept apart here.

Data set [1] deals with 6 Hz (32 mA) model. The following applies: cited from earlier work; for anticonvulsant activity in the 6 Hz model: mouse 6 Hz (32 mA), previously shown; for ED50: 6 Hz model, earlier work.
The subject of data set [2] is maximal electroshock (MES) model. The settings on record: mouse; previously demonstrated; cited from earlier work.
Data set [3] has as its system scMET model (pentylenetetrazole, Metrazol). The following applies: mouse; previously demonstrated; cited from earlier work.
Data set [4] has the same test system. The experiment in a line: scMET test (subcutaneous Metrazol). In kind it is in vivo, mouse. The following applies: for responders at 30 mg/kg / responders at 100 mg/kg / responders at 300 mg/kg: Mus musculus, scMET, read-out: number of animals protected/number of animals tested; for responders at 30 mg/kg: 30 mg/kg ip; for responders at 100 mg/kg: 100 mg/kg ip; for responders at 300 mg/kg: 300 mg/kg ip. An excerpt:
(§1) All compounds (FIG. 1) were screened in three whole mouse models: the maximal electroshock model (MES), the scMET test (pentylenetetrazole, Metrazol), and the 6 Hz psychomotor seizure model of partial epilepsy (32 mA). Adult male CF No 1 albino mice (26-30 g) were used for the 6 Hz test and 18-25 g mice were used in the MES and scMet tests. The animals are housed, fed, and handled in a manner consistent with the recommendations in the National Council Publication, “Guide for the Care and Use of Laboratory Animals”. The animal studies were performed by the NINDS Anticonvulsant Screening Program under IACUC number 09-12014. All compounds were administered ip in polyethylene glycol, 30%.
(§2) The MES model, which generates generalized tonic-clonic seizures, involved pretreating mice with experimental compound, and administering 60 Hz of alternating current (50 mA) for 2 s via corneal electrodes. Prior to current administration, the animal's corneas were treated topically with 1% tetracaine. Animals are considered protected if the hindlimb tonic extensor component is absent. The scMET test was done by pretreating mice with experimental compound and administering 85 mg/kg Metrazol into the loose folds of the skin in the midline of the neck. Eighty-five mg/kg Metrazol is the dose that causes seizures in 97% (CD97) of control animals.

A further data set relates to rotorod test. The data set is described as follows: Toxicity by the rotorod test. In kind it is in vivo. An excerpt: All compounds (FIG. 1) were screened in three whole mouse models: the maximal electroshock model (MES), the scMET test (pentylenetetrazole, Metrazol), and the 6 Hz psychomotor seizure model of partial epilepsy (32 mA). Adult male CF No 1 albino mice (26-30 g) were used for the 6 Hz test and 18-25 g mice were used in the MES and scMet tests. The animals are housed, fed, and handled in a manner consistent with the recommendations in the National Council Publication, “Guide for the Care and Use of Laboratory Animals”. […] All compounds were administered ip in polyethylene glycol, 30%.
The 6 Hz test (also known as the minimal clonic seizure, or psychomotor test) involved delivering a corneal stimulus of 32 mA for 3 s. […] Seizures consist of a minimal clonic phase followed by stereotyped automatistic behaviors. Animals not showing such behaviors were considered protected. Toxicity was determined by the rotorod test. For this test, the animal is placed on a rotorod at 6 rpm following dosing. The animal is considered toxic if it falls off the rotorod three times in a 1 min period. The ED50, TD50 and confidence intervals were determined by probit analysis.

The test system of data set [5] is 6 Hz (32 mA) model. The experiment in a line: 6 Hz (32 mA) psychomotor seizure model of partial epilepsy. In kind it is in vivo, mouse. The following applies: mouse, in vivo.
From the text: as §1
The 6 Hz test (also known as the minimal clonic seizure, or psychomotor test) involved delivering a corneal stimulus of 32 mA for 3 s. This current elicits psychomotor seizures in 97% of untreated animals. Seizures consist of a minimal clonic phase followed by stereotyped automatistic behaviors. Animals not showing such behaviors were considered protected. Toxicity was determined by the rotorod test. For this test, the animal is placed on a rotorod at 6 rpm following dosing. The animal is considered toxic if it falls off the rotorod three times in a 1 min period. The ED50, TD50 and confidence intervals were determined by probit analysis.

Data set [6] concerns maximal electroshock (MES) model. The experiment in a line: maximal electroshock (MES) model. The class given is in vivo, mouse. The following applies: for responders at 30 mg/kg / responders at 100 mg/kg / responders at 300 mg/kg: Mus musculus, MES; for responders at 30 mg/kg: 30 mg/kg ip; for responders at 30 mg/kg / responders at 300 mg/kg: read-out: number of animals protected/number of animals tested; for responders at 100 mg/kg: 100 mg/kg ip, read-out: number of animals protected/number of animals tested (converted); for responders at 300 mg/kg: 300 mg/kg ip.
From the text: as §1, §2

Data set [7] is described as follows: analgesic properties (test not described).
Another data set has as its system seizures. The experiment in a line: anticonvulsant properties (model not stated). The settings on record: in vivo.

Take `Cc1cc(C(O)C(F)(F)F)cc(C)c1O` (stereo not drawn) [DMPF]: in the data set on 6 Hz (32 mA) model [1], the “anticonvulsant activity in the 6 Hz model” value (“anticonvulsant activity” for short) was “lack of activity”.

Take `CCC(C)c1cc(C(O)C(F)(F)F)cc(C(C)CC)c1O` (stereo not drawn) [MB050]: in the data set on 6 Hz (32 mA) model [1], the ED50 is given as 73 mg/kg and the “anticonvulsant activity” value is listed as “good anticonvulsant activity”.

Consider `CC(C)c1cc(C(O)C(F)(F)F)cc(C(C)C)c1O` (stereo not drawn) [MB003], for which, in the data set on 6 Hz (32 mA) model [1], the ED50 was 38.6 mg/kg and the “anticonvulsant activity” value is on record as “good anticonvulsant activity; also recorded: protective”. The “protective effects in the MES model” value in data set [2] is recorded as “little to no protective effects”. Further, in [3], the “protective effects in the scMET model” value is reported as “little to no protective effects”.

For the compound `CCCc1cc(C(O)C(F)(F)F)ccc1O` (stereo not drawn) [RM1208, 2-n-Propyl-4-(2,2,2-trifluoro-1-hydroxy-ethyl)-phenol], the “scMET protection, time points after dosing” value in [4] (300 mg/kg dose) is recorded as “at 0.5 h only”. For the same compound, the responders at 30 mg/kg in data set [4] (0.5 h), in [4] (4 h), in data set [6] (0.25 h), in data set [6] (0.5 h), in data set [6] (1 h) and in data set [6] (2 h) was 0% each time. For the same compound, the responders at 30 mg/kg in data set [6] (4 h) and in data set [6] (6 h) was 0% in each case. In addition, the responders at 100 mg/kg in [4] (0.5 h), in [4] (4 h), in [6] (0.5 h) and in data set [6] (4 h) was 0% each time. In addition, the responders at 300 mg/kg in data set [4] (0.5 h) worked out at 100%; in data set [4] (4 h), 0%; in [6] (0.5 h), 100%; in data set [6] (4 h) it was 100%. For the same compound, the “Toxicity, animals/number of animals tested” value is recorded as 0/2 in the data set with rotorod test (dose 100 mg/kg ip, 0.25 h); 0/8 in the data set with rotorod test (dose 100 mg/kg ip, 0.5 h); 0/3 in the data set with rotorod test (dose 100 mg/kg ip, 1 h); 0/3 with rotorod test (dose 100 mg/kg ip, 2 h); 0/4 with rotorod test (dose 100 mg/kg ip, 4 h); 0/3 in the data set on rotorod test (dose 100 mg/kg ip, 6 h). The “Toxicity, animals/number of animals tested” value in the data set on rotorod test (dose 30 ip, 0.5 h) is 0/4; with rotorod test (dose 30 ip, 4 h), 0/2; with rotorod test (dose 300 ip, 0.5 h), 3/4; in the data set on rotorod test (dose 300 ip, 4 h), 0/2. Besides, in the data set with 6 Hz (32 mA) model [5], the “antiseizure activity in the 6 Hz model” value is “not an active compound”. Moreover, the “MES protection” value in [6] (300 mg/kg dose) is “some protection”. The “MES protection, time points after dosing” value in data set [6] (300 mg/kg dose) was “protection at both 0.5 and 4 h”.

On to `CC(C)c1cc(C(O)C(F)(F)F)cc(Br)c1O` (stereo not drawn) [compound 10], for which, in [7], the analgesic properties entry is “analgesic properties”.

In the case of `CC(C)c1nc(C(O)C(F)(F)F)ccc1O` (stereo not drawn) [Compound 20, 2-isopropyl-6-(2,2,2-trifluoro-1-hydroxyethyl)pyridin-3-ol], the anticonvulsant properties entry in the data set on seizures is given as “anticonvulsant properties”.
